Test results: patent US20250195534A1 (AXSOME THERAPEUTICS, INC., priority 2022, published 2025)

Test: Phase 3 randomized, double-blind, placebo- and active-controlled trial of meloxicam/rizatriptan in acute treatment of migraine (Example 1, MOMENTUM)
[1] = treatment-emergent adverse event

**Q.** For `CN(C)CCc1c[nH]c2ccc(Cn3cncn3)cc12` [Rizatriptan], which “proportion of patients experiencing pain relief” value ([…] after dosing, single dose) is on record?
**A.** 52.5%

**Q.** And the “percentage of patients experiencing sustained pain relief” value (from 2 hours to 24 hours after dosing)?
**A.** 43.9%

**Q.** And the “proportion of patients with sustained pain freedom” value (from 2 hours to 48 hours)?
**A.** 8.8%

**Q.** What about the “Any Treatment-Emergent Adverse Event, number of subjects” value (single dose) of the same compound?
**A.** 67 subjects

**Q.** And the “Dizziness, % of subjects” value [1]?
**A.** 2.1%

**Q.** And the “Dizziness, number of subjects” value [1]?
**A.** 9 subjects

**Q.** What about the “Nausea, % of subjects” value [1] of the same compound?
**A.** 4.8%

**Q.** And the “Nausea, number of subjects” value [1]?
**A.** 21 subjects

**Q.** And the “Somnolence, % of subjects” value [1]?
**A.** 2.1%

**Q.** What about the “Somnolence, number of subjects” value [1] of the same compound?
**A.** 9 subjects
